Assay results: BindingDB's records for doi:10.1016/0006-2952(92)90616-q (National Institutes of Diabetes and Digestive and Kidney …, 1992)
pKi: −log10 of the molar value.

Key:
Adenosine receptor A2a = Adenosine receptor A2a (Rattus norvegicus, UniProt P30543)
Adenosine receptor A1 = target: T1, Adenosine receptor A1 (Rattus norvegicus, UniProt P25099)
T1 sequence (P25099 whole entry): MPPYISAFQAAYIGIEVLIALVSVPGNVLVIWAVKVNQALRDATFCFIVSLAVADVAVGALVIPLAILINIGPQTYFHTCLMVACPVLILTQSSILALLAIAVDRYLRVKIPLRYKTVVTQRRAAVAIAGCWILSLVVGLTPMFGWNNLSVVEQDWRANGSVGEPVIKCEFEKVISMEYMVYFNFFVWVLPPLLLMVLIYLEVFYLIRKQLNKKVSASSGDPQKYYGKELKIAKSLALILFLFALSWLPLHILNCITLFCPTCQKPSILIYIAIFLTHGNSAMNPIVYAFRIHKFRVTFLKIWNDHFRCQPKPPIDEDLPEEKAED

Sequence of Adenosine receptor A2a (P30543 whole entry): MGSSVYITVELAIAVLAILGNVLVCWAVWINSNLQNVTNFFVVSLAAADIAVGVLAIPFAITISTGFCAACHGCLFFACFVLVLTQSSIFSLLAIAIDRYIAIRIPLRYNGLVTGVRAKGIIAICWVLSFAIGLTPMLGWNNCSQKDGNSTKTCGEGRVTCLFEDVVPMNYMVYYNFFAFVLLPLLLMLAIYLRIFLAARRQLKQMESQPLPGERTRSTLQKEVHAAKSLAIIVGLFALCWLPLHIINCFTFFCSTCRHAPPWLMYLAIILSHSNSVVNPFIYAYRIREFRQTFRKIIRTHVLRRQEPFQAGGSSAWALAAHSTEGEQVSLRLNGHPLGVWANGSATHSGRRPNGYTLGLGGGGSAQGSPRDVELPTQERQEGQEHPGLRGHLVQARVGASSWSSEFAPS

| SMILES | pKi (Adenosine receptor A2a) | pKi (Adenosine receptor A1) |
| --- | --- | --- |
| CSC[C@H]1O[C@@H](n2cnc3c(NC4CCCC4)ncnc32)[C@H](O)[C@@H]1O [5'-Methylthio Adenosine] | 5.93 | 6.61 |
| Nc1nc(F)nc2c1ncn2[C@@H]1O[C@H](CO)[C@@H](O)[C@H]1O [2-FluoroAdo] | 7.55 | 8.23 |
| Nc1ncnc2c1ncn2[C@@H]1O[C@H](Cl)[C@@H](O)[C@H]1O [5'-Chloro Adenosine] | 6.85 | 7.70 |
| CCNC(=O)C1OC(n2cnc3c(NC4CCCCC4)ncnc32)C(O)C1O (stereo not drawn) [N6-CyclohexylNECA] | 6.77 | 9.37 |
| OC[C@H]1O[C@@H](n2cnc3c(NC4CCCC4)ncnc32)[C@H](O)[C@@H]1O | 6.29 |  |
| O[C@@H]1[C@H](O)[C@@H](Cl)O[C@H]1n1cnc2c(NC3CCCC3)ncnc21 [N6-Cyclopentyl-5'chloro Adenosine] | 5.87 | 9.20 |
| CSC[C@H]1O[C@@H](n2cnc3c(NC4CCCC4)nc(F)nc32)[C@H](O)[C@@H]1O [2-Fluoro-5'-Methylthio Adenosine] | 6.02 | 7.08 |
